Measured values as given in patent publication US20090247520A1, “INHIBITORS OF ANTIGEN RECEPTOR-INDUCED NF-kappa B ACTIVATION” (The Burnham Institute for Medical Research, priority 2008, published 2009).

Key:
[1] = test system: anti-CD3/CD28-induced IL-2 production; experiment: IL-2 production by anti-CD3/CD28-stimulated Jurkat T cells (ELISA); type: cell-based, human; conditions: for suppression of IL-2 production: anti-CD3/CD28 Jurkat, IKK inhibitor ≦10 μM, PKC inhibitor <0.5 μM
Method: (§1) FIG. 4A: Jurkat T cells were treated by anti-cd3/anti-cd28/anti-mouse IgG (6 μg/mL) or PMA/Ion (10 ng/mL) for 24 h, IL-2 production in medium was measured by ELISA kit. FIG. 4B-E: Jurkat T cells were pretreated by IKK inhibitor (B), PKC inhibitor (C), CID-2858522 (D) for 2 h and then treated by anti-cd3/anti-cd28/anti-mouse IgG (6 μg/mL) or PMA/Ion (10 ng/mL) for 24 h, IL-2 production in medium was measured by ELISA kit; E, Jurkat cells were treated by CID-2858522, PKC inhibitor and IKK inhibitor for 24 h, cell viability was measured by ATPlite kit.
(§2) In T cells, the antigen receptor stimulates several signal transduction pathways that converge on the IL-2 gene promoter, including NF-κB, NF-AT, and AP-1. For evaluating the effects of CID-2858522 on TCR-initiated, NF-κB-driven events in lymphocytes, we employed Jurkat T-leukemia cells, which have been utilized extensively as model for studying TCR-signaling leading to IL-2 gene expression. For these experiments, Jurkat cells were stimulated with either anti-CD3 (to activate the TCR complex) and anti-CD28 (co-stimulator) or with PMA/Ionomycin, in the presence or absence of CID-2858522, IKK inhibitor, or PKC inhibitor, then IL-2 production was measured 24 hrs later in culture supernatants. […] In contrast, CID-2858522 suppressed IL-2 production by CD3/CD28- and PMA/Ionomycin-stimulated Jurkat cells by approximately half (IC50) at concentrations <10 μM (FIG. 4D).
(§3) Lymphokine measurements. Human IL-2 or IL-8 levels in culture medium were measured by Enzyme-Linked Immunosorbent Assays (ELISAs), using BD OptEIA ELISAs (BD Biosciences, San Diego, Calif.), according to the manufacturer's protocol, using 96-well ELISA plates (BD Biosciences) and measuring absorbance within 30 minutes of initiating reactions using a SpectraMax 190 spectrophotometer (Molecular Devices).

[2] = test system: PMA/Ionomycin-induced IL-2 production; experiment: IL-2 production by PMA/Ionomycin-stimulated Jurkat T cells (ELISA); type: cell-based, human
Method: as §1, §2, §3

[3] = test system: XIAP plus TAB induced NF-κB activation; experiment: NF-κB reporter in 293-NF-κB-luciferase cells transfected with XIAP plus TAB; type: cell-based; conditions: CID-2858522 4 μM, IKK inhibitor 10 μM
Method: (§4) FIGS. 3 (A-F) HEK293-NF-κB-luc cells were pretreated with CID-2858522 (4 μM), IKK inhibitor, BMS-335541 (10 μM), or PKC inhibitor, Bisindolylmaleimide I (1 μM) for 2 hrs and then transfected with plasmids encoding CD4/TLR4 (A), CD40 (B), NOD1 (C), NOD2 (D), cIAP2-MALT1 (E), or XIAP and TAB (F), or pcDNA as control (compounds were not removed). After 48 hrs, luciferase activity was measured expressing data as fold increase relative to unstimulated cells (mean±SD; n=3). (G-H) HEK293-NF-κB-luc cells were pretreated with CID-2858522 (4 μM), or IKK inhibitor, BMS-335541 (10 μM) for 2 hrs and then cultured with 2 μM doxorubicin (G) or 16 μM retinoic acid (H). After 48 hrs, luciferase activity was measured as above.
Counter Screening and Secondary Assays. To counter-screen for inhibitors of the TNF pathway, HEK293-NFκB-Luc cells were seeded at 10^5 cells per well in 90 μL medium in white 96-well plates (Greiner Bio-One) and cultured overnight, before adding compounds (5 μL in medium) to cells. After 2 h incubation, 5 μL TNF (200 ng/mL) (R&D Systems) was added (final concentration 10 ng/mL) and cells were incubated for 16 h. Luciferase activity was measured using Britelite kit (Perkin Elmer). To counter-screen for inhibitors of NF-κB induced by TLR4, CD40, NOD1, NOD2, cIAP2/MALT, or XIAP/TAB, the 293-NF-κB-luc cells cultured in 96 well plates as above were pretreated with compounds for 2 h and then transfected using Lipofectamine 2000 with various plasmids including pcDNA3 (“empty vector” control) or plasmids encoding CD4-TLR4, CD40, NOD1, NOD2, cIAP2/MALT, XIAP/TAB, using 0.2 μL of transfection reagent containing 100 ng DNA per well. Cells were cultured in medium containing CID-2858522 or other compounds and luciferase activity was measured 48 h later. […] Reactions were then initiated by addition of 50 μL 160 nM ATP (Sigma) in PBS and luciferase activity was measured 2 h later using a luminometer (LJL Biosystems, Sunnyvale, Calif.).

[4] = test system: doxorubicin-induced NF-κB activity; experiment: NF-κB reporter in HEK293-NF-κB-luc cells stimulated with doxorubicin; type: cell-based; conditions: 2 μM doxorubicin; CID-2858522 4 μM, IKK inhibitor 10 μM
Method: as §4
Counter Screening and Secondary Assays. To counter-screen for inhibitors of the TNF pathway, HEK293-NFκB-Luc cells were seeded at 10^5 cells per well in 90 μL medium in white 96-well plates (Greiner Bio-One) and cultured overnight, before adding compounds (5 μL in medium) to cells. […] Luciferase activity was measured using Britelite kit (Perkin Elmer). […] Cells were cultured in medium containing CID-2858522 or other compounds and luciferase activity was measured 48 h later. […] Reactions were then initiated by addition of 50 μL 160 nM ATP (Sigma) in PBS and luciferase activity was measured 2 h later using a luminometer (LJL Biosystems, Sunnyvale, Calif.).

[5] = test system: MALT1-caspase-8 interaction; experiment: PMA-induced MALT1-caspase-8 interaction in HEK293 cells; type: cell-based; conditions: HEK293 over-expressing Flag-MALT1 and Caspase-8, PMA
From the text: Caspase-8 plays an essential role in antigen receptor-mediated NF-κB activation. It was recently reported that MALT1 interacts with Caspase-8 and activates this protease upon antigen receptor activation. […] We then examined if CID-2858522 affected the pathway at this point. PMA induced significant MALT1-caspase-8 interaction in HEK293 cells over-expressing Flag-MALT1 and Caspase-8. […] The caspase-8 p43/41 processing intermediate was generated in HEK293 cells after PMA/Ion treatment. […] We then assessed the effects of CID-2858522 on PMA-induced proteolytic processing of c-FLIP, a Caspase-8-mediated event recently shown to be required for antigen receptor mediated NF-κB activation.

| SMILES | suppression of IL-2 production [1] | suppression of PMA/Ionomycin-induced IL-2 production ([2]; Jurkat) | suppression of XIAP plus TAB-driven NF-κB activation [3] | suppression of doxorubicin-induced NF-κB activity [4] | inhibition of MALT1-caspase-8 interaction [5] | suppression of IL-2 production ([2]; PMA/Ionomycin Jurkat, PKC inhibitor <0.5 μM) | IC50 ([1]; Homo sapiens, CD3/CD28-stimulated Jurkat cells, 24 h, read-out: IC50, suppression of IL-2 production (by approximately half)) | IC50 ([2]; Homo sapiens, PMA/Ionomycin-stimulated Jurkat cells, 24 h, read-out: IC50, suppression of IL-2 production (by approximately half)) | suppression of XIAP plus TAB-driven NF-κB activation ([3]; listed as CID-288522) |
| --- | --- | --- | --- | --- | --- | --- | --- | --- | --- |
| Cc1ccc2nc(NCCN)c3ncc(C)n3c2c1 [BMS-345541, reference compound] | 90% | partially suppressed | effectively suppressed | suppressed |  |  |  |  |  |
| CN(C)CCCn1cc(C2=C(c3c[nH]c4ccccc34)C(=O)NC2=O)c2ccccc21 [Bisindolylmaleimide I, reference compound] | 80-90% |  |  |  | inhibited | 80-90% |  |  |  |
| Cc1cc2nc(NCCCO)n(CC(=O)c3cc(C(C)(C)C)c(O)c(C(C)(C)C)c3)c2cc1C [Compound 1, 2-(2-(3-Hydroxypropylamino)-5,6-dimethyl-1H-benzo[d]imidazol-1-yl)-1-(3,5-di-tert-butyl-4-hydroxyphenyl)ethanone] |  |  | did not inhibit | did not inhibit | not by CID-2858522 |  | < 10 µM | < 10 µM | did not |
